The values below are quoted from earlier work in US20150313913A1, “POSITIVE ALLOSTERIC MODULATORS OF THE GABA-A RECEPTOR IN THE TREATMENT OF AUTISM” (UNIVERSITY OF WASHINGTON THROUGH ITS CENTER FOR …, priority 2013, published 2015).

The subject of the series is GABA-A receptor. The note with it: cited from earlier work; for Effect at GABA-A receptor: Table 1, exemplary benzodiazepines.
Setting [1] is: Table 4, exemplary non-BDZ GABA-A enhancers.

Where two headings read alike, the source gives them in different places.

Take `COCc1c(C(=O)OC(C)C)ncc2[nH]c3ccc(OCc4ccccc4)cc3c12` [Abecarnil]: the “Effect at GABA receptor” value under setting [1] was “Partial agonist”.

`CN(C)Cc1nnc2n1-c1ccc(Cl)cc1C(c1ccccc1)=NC2` [Adinazolam]: the “Effect at GABA-A receptor” value is recorded as “Full agonist”.

As to `CCCc1c(Cn2ccnc2-c2ncccc2F)ncn2nc(C)nc12` [Adipiplon], under “Table 2, exemplary SS-PAMs”, the “Effect at GABA receptor” value is on record as “Partial agonist α3 selective”.

Turning to `CCCN(CCC)C(=O)Cc1c(-c2ccc(Cl)cc2)nc2ccc(Cl)cn12` [Alpidem], the “Effect at GABA receptor” value (Table 2, exemplary SS-PAMs) is “Agonist α3 subtype selective”.

In the case of `CCOC(=O)N1CCC(=O)N(c2ccccc2)c2cc(Cl)ccc21` [Arfendazam], the “Effect at GABA-A receptor” value is given as “Partial agonist”.

Consider `O=c1c2cnc3ccccc3c2[nH]n1-c1ccccc1` [CGS-8216], for which, under setting [1], the “Effect at GABA receptor” value is given as “Agonist”.

On to `O=c1c2cnc3ccccc3c2[nH]n1-c1ccc(Cl)cc1` [CGS-9896], for which the “Effect at GABA receptor” value under setting [1] is given as “Agonist”.

Take `O=c1nc2ccccc2c2nc(-c3ccccc3)[nH]n12` [CGS-13767]: the “Effect at GABA receptor” value under setting [1] is given as “Agonist”.

As for `COc1ccc(-n2[nH]c3c4c(ncc3c2=O)CCCCC4)cc1` [CGS-20625], the “Effect at GABA receptor” value under setting [1] is reported as “Agonist”.

On to `Clc1ccccc1C1=NCc2nnc(C3CCCCC3)n2-c2sc(Br)cc21` [Ciclotizolam], for which the “Effect at GABA-A receptor” value was “Partial Agonist Low efficacy”.

`CN1C(=O)CN2CCc3ccccc3C2c2cc(Cl)ccc21` (stereo not shown) [Clazolam]: the “Effect at GABA-A receptor” value was “Agonist”.

`Cc1ncc2n1-c1ccc(Cl)cc1C(c1ccccc1Cl)=NC2` [Climazolam]: the “Effect at GABA-A receptor” value is “Agonist”.

Turning to `[O-][N+]1=C(c2ccccc2)c2cc(Cl)ccc2N=C(NCC2CC2)C1` [Cyprazepam], the “Effect at GABA-A receptor” value is given as “Agonist”.

With `CCc1c(OC)nc2nc(C(=O)c3ccccc3)cn2c1C` [Divaplon], under setting [1], the “Effect at GABA receptor” value is listed as “Partial agonist”.

As to `O=C1C(O)N=C(c2ccccc2F)c2cc(Cl)ccc2N1CCO` (stereo not shown) [Doxefazepam], the “Effect at GABA-A receptor” value is on record as “Agonist”.

For `O=C1N=C(N2CCCCC2)CN1c1ccc(Cl)cc1` [ELB-139], under “Table 2, exemplary SS-PAMs”, the “Effect at GABA receptor” value was “Partial agonist Highest affinity for α3 subtype but highest efficacy at the α1 and α2 subunits”.

For `CCS(=O)(=O)CCN1C(=O)CN=C(c2ccccc2F)c2cc(Cl)ccc21` [Elfazepam], the “Effect at GABA-A receptor” value was “Agonist”.

In the case of `CCOC(=O)C1N=C(c2ccccc2F)c2cc(Cl)ccc2N(C(=O)NC)C1=O` (stereo not shown) [Ethyl carfluzepate], the “Effect at GABA-A receptor” value is on record as “Agonist”.

On to `CCOC(=O)C1N=C(c2ccccc2Cl)c2cc(Cl)ccc2NC1=O` (stereo not shown) [Ethyl dirazepate], for which the “Effect at GABA-A receptor” value was “Agonist”.

For the compound `CCc1c(OC)nc2nc(-c3noc(C)n3)cn2c1C` [Fasiplon], the “Effect at GABA receptor” value under setting [1] is “Agonist”.

Turning to `Fc1ccccc1C1=NCCN(CC(F)(F)F)c2ccc(Cl)cc21` [Fletazepam], the “Effect at GABA-A receptor” value is reported as “Agonist”.

Consider `CN1C(=O)CN=C(c2ccccc2F)c2cc(Cl)ccc21` [Fludiazepam], for which the “Effect at GABA-A receptor” value was “Agonist”.

In the case of `O=C1CN2CCOC2(c2ccccc2F)c2cc(Cl)ccc2N1CCO` (stereo not shown) [Flutazolam], the “Effect at GABA-A receptor” value is “Agonist”.

For the compound `CN1C(=O)C(O)N=C(c2ccccc2F)c2cc(Cl)ccc21` (stereo not shown) [Flutemazepam], the “Effect at GABA-A receptor” value was “Agonist”.

On to `COc1c(-c2ccc(N)cc2)nc2ccc(NCc3cccc(C)c3)nn12` [GBLD-345], for which the “Effect at GABA receptor” value under setting [1] is reported as “Full agonist”.

With `COCc1c(C(=O)OC(C)C)ncc2[nH]c3cccc(Cc4ccc(Cl)cc4)c3c12` [Gedocarnil], the “Effect at GABA receptor” value under setting [1] is reported as “Agonist”.

As for `NNC(=O)CN1C(=O)CN=C(c2ccccc2)c2cc(Br)ccc21` [Gidazepam], the “Effect at GABA-A receptor” value is “Agonist (Prodrug)”.

As for `COc1cc2c(cc1OC)C(c1cccc(Cl)c1)=NN=C(C)C2` [Girisopam], the “Effect at GABA-A receptor” value is reported as “Agonist”.

With `O=C1CN2CCOC2(c2ccccc2F)c2cc(Br)ccc2N1` (stereo not shown) [Haloxazolam], the “Effect at GABA-A receptor” value is “Agonist”.

`O=C1CN=C(c2ccccc2)c2cc(Cl)ccc2N1CCOCC1CC1` [Iclazepam]: the “Effect at GABA-A receptor” value is given as “Agonist”.

For `NC(=O)c1ncn2c1CN=C(c1ccccc1Br)c1cc(F)ccc1-2` [Imidazenil], the “Effect at GABA-A receptor” value is “Partial agonist”.

Take `O=C1CCNc2ccc(Cl)cc2N1c1ccccc1` [Lofendazam]: the “Effect at GABA-A receptor” value was “Agonist”.

For the compound `O=C1Nc2ccc(Cl)nc2C(c2ccccc2Cl)=NC1O` (stereo not shown) [Lopirazepam], the “Effect at GABA-A receptor” value is reported as “Agonist Short- acting”.

With `CC(=O)N(C)c1cc(-c2ccnc3c(C(=O)c4cccs4)cnn23)ccc1F` [Lorediplon], under setting [1], the “Effect at GABA receptor” value was “Agonist”.

In the case of `C[C@@H]1N=C(c2ccccc2Cl)c2cc([N+](=O)[O-])ccc2NC1=O` [Meclonazepam], the “Effect at GABA-A receptor” value is “Agonist”.

For the compound `CN1C(=O)CN=C(C2=CCCCC2)c2cc([N+](=O)[O-])ccc21` [Menitrazepam], the “Effect at GABA-A receptor” value was “Agonist”.

Regarding `COCC1CN=C(c2ccccc2Cl)c2cc(Br)ccc2N1C` (stereo not shown) [Metaclazepam], the “Effect at GABA-A receptor” value is on record as “Agonist”.

`CC1COC2(c3ccccc3Cl)c3cc(Cl)ccc3NC(=O)CN12` (stereo not shown) [Mexazolam]: the “Effect at GABA-A receptor” value is reported as “Agonist”.

With `c1cc(-n2ccnc2)cc(-n2cnc3cc(-c4ccoc4)ccc32)c1` [NS-2664], the “Effect at GABA receptor” value (Table 2, exemplary SS-PAMs) is recorded as “Partial agonist α2,3 subtype selective”.

Take `CCO/N=C(\C)c1ccc2c(c1)ncn2-c1cccc(-c2cccnc2)c1` [NS-2710]: under “Table 2, exemplary SS-PAMs”, the “Effect at GABA receptor” value is recorded as “Partial agonist α2,3 subtype selective”.

On to `CC(C)(O)c1ccc2c(c1)ncn2-c1cccc(-c2ccccc2C#N)c1` [NS-11394], for which the “Effect at GABA receptor” value (Table 2, exemplary SS-PAMs) is given as “Agonist α3,5 subtype selective”.

Take `CCc1ccc(-c2nc3ccc(C)cn3c2CN(C)C(=O)CC(C)C)cc1` [Necopidem]: the “Effect at GABA receptor” value under setting [1] was “Agonist”.

In the case of `COc1cc2c(cc1OC)C(c1ccc(N)cc1)=NN=C(C)C2` [Nerisopam], the “Effect at GABA-A receptor” value is on record as “Agonist”.

Turning to `O=C(O)C1N=C(c2ccccc2)c2cc([N+](=O)[O-])ccc2NC1=O` (stereo not shown) [Nitrazepate], the “Effect at GABA-A receptor” value is reported as “Agonist”.

On to `O=C(c1ccccn1)c1cnn2c(-c3ccncc3)ccnc12` [Ocinaplon], for which, under setting [1], the “Effect at GABA receptor” value is “Agonist”.

With `CC1CN2CC(=O)Nc3ccc(Cl)cc3C2(c2ccccc2)O1` (stereo not shown) [Oxazolam], the “Effect at GABA-A receptor” value is on record as “Agonist”.

As to `CC(C)CCC(=O)CC1c2ccccc2C(=O)N1c1ccc2ccc(Cl)nc2n1` (stereo not shown) [Pagoclone], the “Effect at GABA receptor” value (Table 2, exemplary SS-PAMs) is listed as “Partial agonist α2,3 selective”.

Consider `CC(C)n1c(=O)c2c(-c3noc(C4CC4)n3)ncn2c2ccccc21` [Panadiplon], for which the “Effect at GABA receptor” value under setting [1] is listed as “Partial agonist”.

As for `c1ccc(-c2cc(CCC3CCNCC3)c3ccccc3n2)cc1` [Pipequaline], the “Effect at GABA receptor” value under setting [1] was “Partial agonist”.

Take `CC(C)(C)C(=O)OC1N=C(c2ccccc2)c2cc(Cl)ccc2NC1=O` (stereo not shown) [Pivoxazepam]: the “Effect at GABA-A receptor” value was “Agonist”.

`O=C1CN=C(c2ccccc2F)c2cc(Cl)ccc2N1CC(O)CO` (stereo not shown) [Proflazepam]: the “Effect at GABA-A receptor” value is “Agonist”.

In the case of `Cc1ccc(S(=O)(=O)N2CCc3ccccc3[C@@H]2[C@@H]2CCC(=O)O2)cc1` [ROD-188], the “Effect at GABA receptor” value under setting [1] is recorded as “Agonist”.

`CCOCN1C2=C(C(=O)Nc3ccccc3F)C(=O)CCN2c2ccc(F)cc21` [RWJ-51204]: the “Effect at GABA receptor” value under setting [1] was “Partial agonist”.

For `O=C1COC(N2CCN=C(c3ccccc3Cl)c3cc(Cl)ccc32)=N1` [Reclazepam], the “Effect at GABA-A receptor” value was “Agonist”.

Take `COC(=O)CC[C@@H]1N=C(c2ccccn2)c2cc(Br)ccc2-n2c(C)cnc21` [Remimazolam]: the “Effect at GABA-A receptor” value is on record as “Agonist”.

Take `CCn1nc(C)c2c1C(c1ccccc1)=NCC(=O)N2` [Ripazepam]: the “Effect at GABA-A receptor” value is reported as “Agonist”.

On to `CCCN(CCC)Cc1nc(-c2ncn3c2CN(C)C(=O)c2cc(F)ccc2-3)no1` [Ro48-6791], for which the “Effect at GABA-A receptor” value is “Agonist”.

`CC#CCOC(=O)c1c(C)nc2sc3c(c2c1N)CCC(O)C3` (stereo not shown) [SB-205,384]: where the note is “Table 2, exemplary SS-PAMs”, the “Effect at GABA receptor” value is listed as “Agonist α3,5,6 subtype selective”.

`C#Cc1ccc2c(c1)C(c1ccccc1F)=N[C@H](C)c1c(C(=O)OCC)ncn1-2` [SH-053-R-CH3-2′F]: the “Effect at GABA-A receptor” value was “Agonist”.

In the case of `Cn1c2ccc(F)cc2c2c(C(=O)N3CCCC3)cn(-c3ccccc3)c(=O)c21` [SL-651,498], for the setting “Table 2, exemplary SS-PAMs”, the “Effect at GABA receptor” value is recorded as “Full agonist α2,3 selective”.

Take `CN1C(=S)CN=C(c2ccccc2)c2cc(Cl)ccc21` [Sulazepam]: the “Effect at GABA-A receptor” value is on record as “Agonist”.

As to `CCC(=O)N1CCN(C(=O)O[C@H]2C3SCCSC3C(=O)N2c2ccc3ccc(Cl)nc3n2)CC1` (stereo partly shown) [Suproclone], under setting [1], the “Effect at GABA receptor” value is reported as “Agonist”.

For the compound `CN1CCN(C(=O)OC2C3=C(SCCS3)C(=O)N2c2ccc3ccc(Cl)nc3n2)CC1` (stereo not shown) [Suriclone], under setting [1], the “Effect at GABA receptor” value is “Agonist”.

As to `CC(C)(O)c1ccn2c(-c3ccc(F)c(-c4ccc(F)cc4C#N)c3)cnc2c1F` [TP-003], the “Effect at GABA receptor” value (Table 2, exemplary SS-PAMs) is “Partial agonist α2,3,5 subtype selective binding and α3 selective efficacy”.

In the case of `Cn1ncnc1COc1nn2c(-c3ccccc3)nnc2cc1C1CCC1` [TP-13], the “Effect at GABA receptor” value (Table 2, exemplary SS-PAMs) was “Partial agonist at α2,3 subunits”.

With `CCn1ncnc1COc1nn2c(-c3ccccc3F)nnc2cc1C(C)(C)C` [TPA-023, 7-(1,1-dimethylethyl)-6-(2-ethyl-2H-1,2,4-triazol-3-ylmethoxy)-3-(2-fluorophenyl)-1,2,4-triazolo[4,3-b]pyridazine], the “Effect at GABA receptor” value (Table 2, exemplary SS-PAMs) is given as “Partial agonist at α2,3 subunits Antagonist at α1,5 subunits”.

On to `COc1nc2nc(-c3noc(C)n3)cn2c2c1CCCC2` [Taniplon], for which, under setting [1], the “Effect at GABA receptor” value is listed as “Agonist”.

As to `CN1C(=O)CC(=O)N(c2ccccc2)c2cc(C(F)(F)F)ccc21` [Triflubazam], the “Effect at GABA-A receptor” value is listed as “Agonist”.

In the case of `Cc1cc2c(N3CCCC3)nc(N3CCCC3)nc2n1C` [U-89843A], where the note is “Table 2, exemplary SS-PAMs”, the “Effect at GABA receptor” value was “Agonist at α1,3,6 subunits”.

Take `Clc1ccc2c(c1)C1=NCCN1c1c(-c3noc(C4CC4)n3)ncn1-2` [U-90042]: under “Table 2, exemplary SS-PAMs”, the “Effect at GABA receptor” value is “Agonist at α1,3,6 subunits”.
